Assay results: paper PMC8286840, “Identifying SARS-CoV-2 antiviral compounds by screening for small molecule inhibitors of Nsp3 papain-like protease” (Biochemical Journal, 2021)
Where a name gives a salt, the structure may show the parent alone. Read-outs that look alike come from different tables or passages of the source.

What was measured:
[1] = target: T1, SARS-CoV-2 PLpro (nsp3 1564–1878) (Severe acute respiratory syndrome coronavirus 2, UniProt P0DTD1); assay: biochemical; set-up: FRET-quenched peptide (Pro3) cleavage by PLpro, 10 min pre-incubation, slope over 20 min, normalised to no-compound control; settings: low concentration screen, read-out: % of control remaining
[2] = target: T1, SARS-CoV-2 PLpro (nsp3 1564–1878); assay: biochemical; set-up: FRET-quenched peptide (Pro3) cleavage by PLpro, 10 min pre-incubation, slope over 20 min, normalised to no-compound control; settings: high concentration screen, read-out: % of control remaining

COc1cnc(-n2cnc(C)n2)c2[nH]cc(C(=O)C(=O)N3CCN(C(=O)c4ccccc4)CC3)c12 [Temsavir]
remaining activity at 1.25 µM ([1]; Well no.=7886): 97.2% | remaining activity at 3.75 µM ([2]; Well no.=7886): 98%

CCOCC(O)COc1ccc(NC(=O)CC[S+](C)C)cc1 (centres unmarked) [Suplatast tosylate]
remaining activity at 1.25 µM ([1]; Well no.=4714): 107% | remaining activity at 3.75 µM ([2]; Well no.=4714): 106%

CC(C)=CCc1c(O)ccc(C(=O)/C=C/c2ccc(O)cc2)c1O [Isobavachalcone]
remaining activity at 1.25 µM ([1]; Well no.=6538): 102% | remaining activity at 3.75 µM ([2]; Well no.=6538): 97.1%

CC[C@H]1CN2CCc3cc(OC)c(OC)cc3[C@@H]2C[C@@H]1C[C@H]1NCCc2cc(OC)c(OC)cc21
remaining activity at 1.25 µM ([1]; Well no.=3424): 92.3% | remaining activity at 3.75 µM ([2]; Well no.=3424): 98%

COc1cc2ncnc(-n3nc(-c4ccccn4)nc3N)c2cc1OC [CP-466722]
remaining activity at 1.25 µM ([1]; Well no.=5158): 103% | remaining activity at 3.75 µM ([2]; Well no.=5158): 101%

O=C(Nc1ncc(-c2cc(C(F)F)nn2-c2c(Cl)cccc2Cl)s1)C1CC1 [BMS-3]
remaining activity at 1.25 µM ([1]; Well no.=3039): 95.8% | remaining activity at 3.75 µM ([2]; Well no.=3039): 96.4%

Nc1nc(-c2nn(Cc3ccccc3F)c3ncccc23)ncc1C1CC1 [BAY 41-2272]
remaining activity at 1.25 µM ([1]; Well no.=7717): 102% | remaining activity at 3.75 µM ([2]; Well no.=7717): 94.6%

CCC(C)(C)c1ccc(CC(C)CN2C[C@@H](C)O[C@@H](C)C2)cc1 (some centres unmarked) [Amorolfine]
remaining activity at 1.25 µM ([1]; Well no.=1748): 99% | remaining activity at 3.75 µM ([2]; Well no.=1748): 101%

CC1CCN=C(N)S1 (racemic)
remaining activity at 1.25 µM ([1]; Well no.=12): 105% | remaining activity at 3.75 µM ([2]; Well no.=12): 106%

O=C1CN2Cc3c(ccc(Cl)c3Cl)N=C2N1 [Anagrelide]
remaining activity at 1.25 µM ([1]; Well no.=1629): 95.8% | remaining activity at 3.75 µM ([2]; Well no.=1629): 97.6%

Nc1cc(C(Cl)=C(Cl)Cl)c(S(N)(=O)=O)cc1S(N)(=O)=O [Clorsulon]
remaining activity at 1.25 µM ([1]; Well no.=5298): 87.3% | remaining activity at 1.25 µM ([1]; Well no.=7310): 99.9% | remaining activity at 3.75 µM ([2]; Well no.=5298): 87.7% | remaining activity at 3.75 µM ([2]; Well no.=7310): 97.7%

COC(=O)/C=C/c1cccc(N(Cc2ccc(-c3ccc(N(C)C)cc3)cc2)C(=O)C2CCCCC2)c1 [Fexaramine]
remaining activity at 1.25 µM ([1]; Well no.=5559): 97.4% | remaining activity at 3.75 µM ([2]; Well no.=5559): 104%

NC(Cc1cccc(-c2ccccc2CP(=O)(O)O)c1)C(=O)O (stereo not drawn) [Phenylbenzene-omega-phosphono-alpha-amino acid]
remaining activity at 1.25 µM ([1]; Well no.=1361): 100% | remaining activity at 3.75 µM ([2]; Well no.=1361): 100%

CC(C)(Oc1ccc(C(=O)c2ccc(Cl)cc2)cc1)C(=O)O [Fenofibric acid]
remaining activity at 1.25 µM ([1]; Well no.=8204): 106% | remaining activity at 3.75 µM ([2]; Well no.=8204): 104%

CC(=O)N1CCN(c2ccc(OC[C@@H]3CO[C@@](Cn4ccnc4)(c4ccc(Cl)cc4Cl)O3)cc2)CC1 (racemic) [Ketoconazole]
remaining activity at 1.25 µM ([1]; Well no.=877): 107% | remaining activity at 1.25 µM ([1]; Well no.=1853): 99.4% | remaining activity at 3.75 µM ([2]; Well no.=877): 107% | remaining activity at 3.75 µM ([2]; Well no.=1853): 100%

Cc1nc(=O)c2cc(CN(C)c3ccc(C(=O)N[C@@H](CCC(=O)O)C(=O)O)s3)ccc2[nH]1 [Raltitrexed (Tomudex)]
remaining activity at 1.25 µM ([1]; Well no.=4723): 115% | remaining activity at 3.75 µM ([2]; Well no.=4723): 106%

CCN(CC)Cc1ccc2cc(COC(=O)Nc3ccc(C(=O)NO)cc3)ccc2c1 [ITF2357 (Givinostat)]
remaining activity at 1.25 µM ([1]; Well no.=5110): 102% | remaining activity at 3.75 µM ([2]; Well no.=5110): 106%

CC1(C)C=C(CN2C/C(=C\c3ccc(F)cc3)C(=O)/C(=C/c3ccc(F)cc3)C2)C(C)(C)N1O [HO-3867]
remaining activity at 1.25 µM ([1]; Well no.=8518): 101% | remaining activity at 3.75 µM ([2]; Well no.=8518): 102%

Cn1c(N2CCCCS2(=O)=O)nc(C(=O)NCc2ccc(F)cc2)c(O)c1=O [BMS-707035]
remaining activity at 1.25 µM ([1]; Well no.=5193): 105% | remaining activity at 3.75 µM ([2]; Well no.=5193): 106%

OCCOCCN1CCN(C2=Nc3ccccc3Sc3ccccc32)CC1 [Quetiapine]
remaining activity at 1.25 µM ([1]; Well no.=6616): 98.1% | remaining activity at 3.75 µM ([2]; Well no.=6616): 98.6%

CC(COc1ccccc1)N(CCCl)Cc1ccccc1 (centres unmarked) [Phenoxybenzamine (hydrochloride)]
remaining activity at 1.25 µM ([1]; Well no.=6797): 99.8% | remaining activity at 3.75 µM ([2]; Well no.=6797): 93.2%

O=S(=O)(NC1CCCCC1)c1ccc2c(c1)C(=NO)c1cc(S(=O)(=O)NC3CCCCC3)ccc1-2 [FIN56]
remaining activity at 1.25 µM ([1]; Well no.=6740): 99.6% | remaining activity at 1.25 µM ([1]; Well no.=8726): 93.4% | remaining activity at 3.75 µM ([2]; Well no.=6740): 97.8% | remaining activity at 3.75 µM ([2]; Well no.=8726): 94.6%

CC1(C)CC(=O)C2=C(C1)NC(=S)NC2c1cccc(O)c1 (centres unmarked) [4-(3-hydroxyphenyl)-7,7-dimethyl-2-thioxo-2,3,4,6,7,8-hexahydro-5(1H)-quinazolinone]
remaining activity at 1.25 µM ([1]; Well no.=5634): 94.5% | remaining activity at 3.75 µM ([2]; Well no.=5634): 95.1%

CS(=O)(=O)c1cccc(C[C@H](NC(=O)c2c(Cl)cc3c(c2Cl)CCN(C(=O)c2ccc4ccoc4c2)C3)C(=O)O)c1 [Lifitegrast]
remaining activity at 1.25 µM ([1]; Well no.=8038): 94.5% | remaining activity at 3.75 µM ([2]; Well no.=8038): 95.3%

Cc1onc(-c2ccccc2)c1-c1ccc(S(N)(=O)=O)cc1 [Valdecoxib]
remaining activity at 1.25 µM ([1]; Well no.=4694): 97.5% | remaining activity at 3.75 µM ([2]; Well no.=4694): 95.9%

N[C@@H](CCC(=O)N[C@@H](CS)C(=O)NCC(=O)O)C(=O)O [Glutathione]
remaining activity at 1.25 µM ([1]; Well no.=4049): 99.4% | remaining activity at 3.75 µM ([2]; Well no.=4049): 100%

Cc1ccc(Oc2ccnc3cc(-c4cnn(C5CCNCC5)c4)ccc23)cc1 [HS-1371]
remaining activity at 1.25 µM ([1]; Well no.=6820): 91.1% | remaining activity at 3.75 µM ([2]; Well no.=6820): 85.5%

CC(C)C[C@H](NC(=O)[C@@H](COC(C)(C)C)NC(=O)[C@H](Cc1ccc(O)cc1)NC(=O)[C@H](CO)NC(=O)[C@H](Cc1c[nH]c2ccccc12)NC(=O)[C@H](Cc1cnc[nH]1)NC(=O)[C@@H]1CCC(=O)N1)C(=O)N[C@@H](CCCNC(=N)N)C(=O)N1CCC[C@H]1C(=O)NNC(N)=O [Goserelin]
remaining activity at 1.25 µM ([1]; Well no.=1624): 98.9% | remaining activity at 3.75 µM ([2]; Well no.=1624): 101%

Cc1cc(C)nc(NC(=S)N2CCN(Cc3ccc(C(F)(F)F)cc3)CC2)c1 [NCT-503]
remaining activity at 1.25 µM ([1]; Well no.=8538): 96.7% | remaining activity at 3.75 µM ([2]; Well no.=8538): 93.8%

C=CCN1CC[C@]23c4c5ccc(O)c4O[C@H]2C(=O)CC[C@@]3(O)[C@H]1C5 [Naloxone hydrochloride]
remaining activity at 1.25 µM ([1]; Well no.=907): 103% | remaining activity at 3.75 µM ([2]; Well no.=907): 105%

COc1cc(OC)c(C(=O)CCCN2CCCC2)c(OC)c1 [Buflomedil HCl]
remaining activity at 1.25 µM ([1]; Well no.=5296): 101% | remaining activity at 3.75 µM ([2]; Well no.=5296): 97.4%

CCNC(=O)c1[nH]nc(-c2cc(Cl)c(O)cc2O)c1-c1ccc(OC)cc1 [VER-49009]
remaining activity at 1.25 µM ([1]; Well no.=8622): 100% | remaining activity at 3.75 µM ([2]; Well no.=8622): 100%

CN1CCc2cccc(Cl)c2CC1 [SKF 86466]
remaining activity at 1.25 µM ([1]; Well no.=1214): 101% | remaining activity at 3.75 µM ([2]; Well no.=1214): 97.9%

CCCCCCCC/C=C/CCCCCCCC(=O)O [Elaidic acid]
remaining activity at 1.25 µM ([1]; Well no.=7259): 96% | remaining activity at 3.75 µM ([2]; Well no.=7259): 87.3%
